Each structure is given as a SMILES string.

The test system of the first assay is 1434 (donor line of iPSC-derived cardiomyocytes). Description: POD (EC10) for decrease in total cell number (cytotoxicity) vs vehicle; higher = less potent (higher point of departure). Particulars: exposure time: 90 min. As to the method:
(§1)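 Human iPSC-derived cardiomyocytes from 16 donors were exposed for 90 min at 37 °C to each PFAS at 0.1, 1, 10 and 100 µM in 0.5% DMSO, 384-well plates. Kinetic Ca2+ flux (FLIPR) and Hoechst nuclei counts were normalised to vehicle wells and fitted with a hierarchical Bayesian Hill model to give donor-specific PODs: EC05 for beat-rate increase or decrease and for decay-to-rise ratio increase (QT proxy), EC95 for peak-frequency loss (asystole), EC10 for total cell number loss. 0.03 µM is the lower bound.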
In turn, `O=C(O)C(F)(F)C(F)(F)C(F)(F)C(F)(F)C(F)(F)C(F)(F)C(F)(F)C(F)(F)F` [Perfluorononanoic_acid] showed a POD vs vehicle above 100 µM.
For the compound `O=S(=O)([O-])C(F)(F)C(F)(F)C(F)(F)C(F)(F)F.[K+]` [Potassium_perfluorobutanesulfonate], the POD vs vehicle is 53.9 µM.

The subject of another assay is 20084 (donor line of iPSC-derived cardiomyocytes). The description is as above. As to conditions: exposure time: 90 min. As to the method: as §1
In the case of `NC(=O)C(F)(F)C(F)(F)C(F)(F)C(F)F`, the POD vs vehicle is above 100 µM.
`OCC(O)CC(F)(F)C(F)(F)C(F)(F)C(F)(F)C(F)(F)C(F)(F)C(F)(F)C(F)(F)F` (stereo unspecified) [1-(Perfluorofluorooctyl)propane-2,3-diol] gave a POD vs vehicle above 100 µM.
Still for that read-out and setting: in the case of `CC(O)C(F)(F)C(F)(F)F` (stereo unspecified) [1-Pentafluoroethylethanol] it was above 100 µM.
On the same count and under the same terms, in the case of `O=C(O)C(F)(F)C(F)(F)C(F)F` [2,2,3,3,4,4-Hexafluorobutanoic_acid] it was above 100 µM; in that of `NC(O)(C(F)(F)F)C(F)(F)F` [2-Aminohexafluoropropan-2-ol], above 100 µM; in that of `O=C(O)CCC(F)(F)C(F)(F)C(F)(F)C(F)(F)C(F)(F)F` [2H,2H,3H,3H-Perfluorooctanoic_acid], above 100 µM.
Same read-out and setting: next, `O=C(O)C=C(C(F)(F)F)C(F)(F)F` [3,3-Bis(trifluoromethyl)-2-propenoic_acid]: above 100 µM; `O=C(O)C=CC(F)(C(F)(F)F)C(F)(F)F` [3-(Perfluoroisopropyl)-2-propenoic_acid]: above 100 µM; `O=C(O)CCC(F)(F)C(F)(F)C(F)(F)F` [3:3 Fluorotelomer carboxylic acid]: above 100 µM.
Regarding `O=C(CC(=O)C(F)(F)C(F)(F)F)C(F)(F)F` [3H,3H-Perfluoro-2,4-hexanedione], the POD vs vehicle was above 100 µM.
Still for that read-out and setting: in the case of `O=S(=O)(O)CCC(F)(F)C(F)(F)C(F)(F)C(F)(F)F` [4:2 Fluorotelomer sulfonic acid] it was above 100 µM; in that of `OCC(F)(F)C(F)(F)C(F)(F)F` [Heptafluorobutanol], above 100 µM.
With `OCC(F)(F)C(F)(F)C(F)(F)CO` [Hexafluoroamylene_glycol], the POD vs vehicle is above 100 µM.
For the compound `NC(=O)C(F)(F)C(F)(F)C(F)(F)C(F)(F)F` [Nonafluoropentanamide], the POD vs vehicle is above 100 µM.
Consider `O=C(O)C(F)(F)OC(F)(F)C(F)(F)OC(F)(F)F` [Perfluoro-3,6-dioxaheptanoic_acid], for which the POD vs vehicle is above 100 µM.
On the same count and under the same terms, in the case of `O=C(O)C(F)(F)OC(F)(F)C(F)(F)OC(F)(F)C(=O)O` [Perfluoro-3,6-dioxaoctane-1,8-dioic_acid] it was above 100 µM; in that of `O=C(O)C(F)(F)C(F)(F)C(F)(F)OC(F)(C(F)(F)F)C(F)(F)F` [Perfluoro-4-isopropoxybutanoic_acid], above 100 µM; in that of `O=S(=O)(O)C(F)(F)C(F)(F)C(F)(F)C(F)(F)F` [Perfluorobutanesulfonic_acid], above 100 µM.
Compound `O=C(O)C(F)(F)C(F)(F)C(F)(F)C(F)(F)C(F)(F)C(F)(F)C(F)(F)C(F)(F)F` [Perfluorononanoic_acid] registered a POD vs vehicle above 100 µM.
Same read-out and setting: in the case of `O=S(=O)([O-])C(F)(F)C(F)(F)C(F)(F)C(F)(F)F.[K+]` [Potassium_perfluorobutanesulfonate] it was above 100 µM.

A further assay has as its system 1565 (donor line of iPSC-derived cardiomyocytes). The description is as above. As to conditions: exposure time: 90 min. As to the method:
as §1
The compound `NC(=O)C(F)(F)C(F)(F)C(F)(F)C(F)F` yielded a POD vs vehicle above 100 µM.
The same measure, in the same setting: in the case of `OCC(O)CC(F)(F)C(F)(F)C(F)(F)C(F)(F)C(F)(F)C(F)(F)C(F)(F)C(F)(F)F` (stereo unspecified) [1-(Perfluorofluorooctyl)propane-2,3-diol] it was above 100 µM; in that of `CC(O)C(F)(F)C(F)(F)F` (stereo unspecified) [1-Pentafluoroethylethanol], above 100 µM.
Still for that read-out and setting: next, `O=C(O)C(F)(F)C(F)(F)C(F)F` [2,2,3,3,4,4-Hexafluorobutanoic_acid]: above 100 µM; `NC(O)(C(F)(F)F)C(F)(F)F` [2-Aminohexafluoropropan-2-ol]: above 100 µM; `O=C(O)CCC(F)(F)C(F)(F)C(F)(F)C(F)(F)C(F)(F)F` [2H,2H,3H,3H-Perfluorooctanoic_acid]: above 100 µM.
On to `O=C(O)C=C(C(F)(F)F)C(F)(F)F` [3,3-Bis(trifluoromethyl)-2-propenoic_acid], for which the POD vs vehicle is above 100 µM.
Same read-out and setting: in the case of `O=C(O)C=CC(F)(C(F)(F)F)C(F)(F)F` [3-(Perfluoroisopropyl)-2-propenoic_acid] it was above 100 µM.
Still for that read-out and setting: next, `O=C(O)CCC(F)(F)C(F)(F)C(F)(F)F` [3:3 Fluorotelomer carboxylic acid]: above 100 µM.
The same measure, in the same setting: in the case of `O=C(CC(=O)C(F)(F)C(F)(F)F)C(F)(F)F` [3H,3H-Perfluoro-2,4-hexanedione] it was above 100 µM; in that of `O=S(=O)(O)CCC(F)(F)C(F)(F)C(F)(F)C(F)(F)F` [4:2 Fluorotelomer sulfonic acid], above 100 µM; in that of `OCC(F)(F)C(F)(F)C(F)(F)F` [Heptafluorobutanol], above 100 µM.
For `OCC(F)(F)C(F)(F)C(F)(F)CO` [Hexafluoroamylene_glycol], the POD vs vehicle is above 100 µM.
Still for that read-out and setting: in the case of `NC(=O)C(F)(F)C(F)(F)C(F)(F)C(F)(F)F` [Nonafluoropentanamide] it was above 100 µM; in that of `O=C(O)C(F)(F)OC(F)(F)C(F)(F)OC(F)(F)F` [Perfluoro-3,6-dioxaheptanoic_acid], above 100 µM.
The same measure, in the same setting: in the case of `O=C(O)C(F)(F)OC(F)(F)C(F)(F)OC(F)(F)C(=O)O` [Perfluoro-3,6-dioxaoctane-1,8-dioic_acid] it was above 100 µM; in that of `O=C(O)C(F)(F)C(F)(F)C(F)(F)OC(F)(C(F)(F)F)C(F)(F)F` [Perfluoro-4-isopropoxybutanoic_acid], above 100 µM; in that of `O=S(=O)(O)C(F)(F)C(F)(F)C(F)(F)C(F)(F)F` [Perfluorobutanesulfonic_acid], above 100 µM.
The same measure, in the same setting: in the case of `O=C(O)C(F)(F)C(F)(F)C(F)(F)C(F)(F)C(F)(F)C(F)(F)C(F)(F)C(F)(F)F` [Perfluorononanoic_acid] it was above 100 µM; in that of `O=S(=O)([O-])C(F)(F)C(F)(F)C(F)(F)C(F)(F)F.[K+]` [Potassium_perfluorobutanesulfonate], above 100 µM.

For another assay, the system named is 1516 (donor line of iPSC-derived cardiomyocytes). Briefly: POD (EC05) for increase in Ca2+ transient decay-to-rise ratio (QT prolongation) vs vehicle; higher = less potent (higher point of departure). As to conditions: exposure time: 90 min. In short, it runs like this:
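Ca2+ flux in human iPSC-derived cardiomyocytes from 16 donors was recorded on a FLIPR Tetra for 100 s before and after a 90 min exposure at 37 °C to 0.1, 1, 10 and 100 µM (final, 0.5% DMSO). Donor-specific points of departure came from hierarchical Bayesian Hill fits to vehicle-normalised beat frequency, decay-to-rise ratio or peak frequency. A 5% change served as threshold, except for peak frequency, where it was a 95% loss.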
Regarding `OCC(O)CC(F)(F)C(F)(F)C(F)(F)C(F)(F)C(F)(F)C(F)(F)C(F)(F)C(F)(F)F` (stereo unspecified) [1-(Perfluorofluorooctyl)propane-2,3-diol], the POD vs vehicle was above 100 µM.
On the same count and under the same terms, in the case of `CC(O)C(F)(F)C(F)(F)F` (stereo unspecified) [1-Pentafluoroethylethanol] it was above 100 µM; in that of `O=C(O)CCC(F)(F)C(F)(F)C(F)(F)C(F)(F)C(F)(F)F` [2H,2H,3H,3H-Perfluorooctanoic_acid], 43.9 µM; in that of `O=C(O)C=C(C(F)(F)F)C(F)(F)F` [3,3-Bis(trifluoromethyl)-2-propenoic_acid], above 100 µM.

The values are drawn from the supplement of paper PMC11368000.
